Reference: US12012406B1, “Pyrido[4,3-e]pyrrolo[1,2-a]pyrimidine as CK2 inhibitors” (KING FAISAL UNIVERSITY, priority 2024, dated 2024)

Tests used:
H1299 (lung) = test: In vitro cytotoxic activity MTT assay, H1299; format: cell-based; details: Homo sapiens, NCI-H1299, cells exposed for 96 hours, read-out: Cytotoxicity activity IC50 (50% inhibition of cell proliferation)
Protocol: (§1) Compounds 1-16 were screened for their in vitro cytotoxic activity utilizing a 3-(4,5-dimethyl-thiazol-2-yl)-2,5-diphenyltetrazolium bromide (MTT) assay against selected cancer human cell lines consisting of PC3 (prostate), HCT116 (colon), A375 (melanoma), H1299 (lung), MIAPaCa-2 (pancreas), HL60 (leukemia), MCF7 (breast), MDA-MB-231 (breast) (T. Mosmann, J. Immunol. Meth., 1983, 65, 55-63). The cells were cultured at 37° C. in RMPI1640 medium supplemented with 10% fetal bovine serum, 50 IU/mL penicillin, and 50 μg/mL streptomycin in a 5% CO2 incubator. All cells were sub-cultured 3 times/week by trypsinisation. Viable cells were seeded and allowed to adhere for 12 hours before a test drug was added in 96-well plates at an initial density of 1.0×10^5 cells/mL. Tumor cell lines were separately exposed to various concentrations of the tested compounds followed by incubation at a temperature of 37° C. during 96 hours inside a medium of fresh RMPI 1640. Cells were subsequently incubated at 37° C. using MTT at 0.5 mg/mL during 4 hours. After removal of supernatant, formazan crystals were dissolved in isopropanol and the optical density was measured at 570 nm. CX-4945 was used as a positive control.

HCT116 (colon) = test: In vitro cytotoxic activity MTT assay, HCT116; format: cell-based; details: Homo sapiens, HCT-116, cells exposed for 96 hours, read-out: Cytotoxicity activity IC50 (50% inhibition of cell proliferation)
Protocol: as §1

MDA-MB-231 (breast) = test: In vitro cytotoxic activity MTT assay, MDA-MB-231; format: cell-based; details: Homo sapiens, cells exposed for 96 hours, read-out: Cytotoxicity activity IC50 (50% inhibition of cell proliferation)
Protocol: as §1

HL60 (leukemia) = test: In vitro cytotoxic activity MTT assay, HL60; format: cell-based; details: Homo sapiens, HL-60, cells exposed for 96 hours, read-out: Cytotoxicity activity IC50 (50% inhibition of cell proliferation)
Protocol: as §1

MIAPaCa-2 (pancreas) = test: In vitro cytotoxic activity MTT assay, MIAPaCa-2; format: cell-based; details: Homo sapiens, MIA PaCa-2, cells exposed for 96 hours, read-out: Cytotoxicity activity IC50 (50% inhibition of cell proliferation)
Protocol: as §1

MCF7 (breast) = test: In vitro cytotoxic activity MTT assay, MCF7; format: cell-based; details: Homo sapiens, cells exposed for 96 hours, read-out: Cytotoxicity activity IC50 (50% inhibition of cell proliferation)
Protocol: as §1

[1] = target: T1, recombinant human CK2 (RRBB-holoenzyme) (Homo sapiens, UniProt P68400); test: CK2 Kinase Assay (33P-ATP, filter plate); format: biochemical; details: recombinant human CK2, final ATP concentration 15 μM, 10 min at 30° C.; read-out: protein kinase CK2 inhibition IC50
T1 construct: purchased Millipore
Protocol: CK2 Kinase Assay was conducted using the protocol as described in Pierre F. et al; J. Med. Chem. 2011, 54, 635-654. The tested compounds in aqueous solution were added at a volume of 10 μL to a reaction mixture comprising 10 μL of assay dilution buffer (ADB; 20 mM MOPS, pH 7.2, 25 mM B-glycerol phosphate, 5 mM EGTA, 1 mM sodium orthovanadate, and 1 mM dithiothreitol), 10 μL of substrate peptide (RRRDDDSDDD, dissolved in ADB at a concentration of 1 mM), 10 μL of recombinant human CK2 (RRBB-holoenzyme, 25 ng dissolved in ADB; Millipore). Reactions were initiated by the addition of 10 μL of ATP solution (90% 75 mMMgCl2, 75 μM ATP (final ATP concentration: 15 μM) dissolved in ADB; 10% [γ-33P] ATP (stock 1mCi/100 μL; 3000 Ci/mmol (Perkin-Elmer) and maintained for 10 min at 30° C. The reactions were quenched with 100 μL of 0.75% phosphoric acid and then transferred to and filtered through a phosphor cellulose filter plate (Millipore). After washing each well five times with 0.75% phosphoric acid, the plate was dried under vacuum for 5 min and, following the addition of 15 μL of scintillation fluid to each well, the residual radioactivity was measured using a Wallac luminescence counter. The IC50 values were derived from eight concentrations of test inhibitors.

A375 (melanoma) = test: In vitro cytotoxic activity MTT assay, A375; format: cell-based; details: Homo sapiens, A-375, cells exposed for 96 hours, read-out: Cytotoxicity activity IC50 (50% inhibition of cell proliferation)
Protocol: as §1

PC3 (prostate) = test: In vitro cytotoxic activity MTT assay, PC3; format: cell-based; details: Homo sapiens, Prostate cell, cells exposed for 96 hours, read-out: Cytotoxicity activity IC50 (50% inhibition of cell proliferation)
Protocol: as §1

T1 sequence (P68400 whole entry): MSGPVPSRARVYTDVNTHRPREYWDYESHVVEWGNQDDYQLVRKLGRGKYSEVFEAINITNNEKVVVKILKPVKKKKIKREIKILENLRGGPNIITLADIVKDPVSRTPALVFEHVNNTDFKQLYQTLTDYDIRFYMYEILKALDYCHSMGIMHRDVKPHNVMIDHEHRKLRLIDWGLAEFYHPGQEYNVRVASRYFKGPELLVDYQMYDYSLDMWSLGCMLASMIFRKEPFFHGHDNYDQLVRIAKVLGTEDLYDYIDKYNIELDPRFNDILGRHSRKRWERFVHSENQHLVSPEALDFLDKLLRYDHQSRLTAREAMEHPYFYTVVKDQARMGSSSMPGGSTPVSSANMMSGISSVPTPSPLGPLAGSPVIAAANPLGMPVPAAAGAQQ
T1 sequence (P67870 whole entry partner): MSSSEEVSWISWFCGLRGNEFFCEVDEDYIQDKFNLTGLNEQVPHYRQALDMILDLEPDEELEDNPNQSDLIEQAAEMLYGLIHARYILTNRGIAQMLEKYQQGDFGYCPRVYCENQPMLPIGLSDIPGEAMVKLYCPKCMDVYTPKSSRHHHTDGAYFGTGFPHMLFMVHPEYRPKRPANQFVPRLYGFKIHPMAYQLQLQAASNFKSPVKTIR

- IC50 [1]: 89 nM
Structure (SMILES): O=C(O)c1ccn2c1nc(Nc1cccc(Cl)c1)c1ccncc12 [Compound 1, 5-((3-chlorophenyl)amino)pyrido[4,3-e]pyrrolo[1,2-a]pyrimidine-7-carboxylic acid]
- IC50 (H1299 (lung)): 1900 nM
- IC50 (HCT116 (colon)): 2100 nM
- IC50 (MDA-MB-231 (breast)): 4200 nM
- IC50 (HL60 (leukemia)): 3500 nM
- IC50 (MIAPaCa-2 (pancreas)): 1300 nM
- IC50 (MCF7 (breast)): 5600 nM
- IC50 (A375 (melanoma)): 4600 nM
- IC50 (PC3 (prostate)): 2400 nM
